Measurements reported in publication PMC12114375, “Discovery of Hydrazineyl Amide Derivative of Pseudolaric Acid B for Reprogramming Tumor-Associated Macrophages Against Tumor Growth” (Molecules, 2025).

Tests used:
Type in all cases: cell-based, mouse
[1] = system: ARG1 mRNA expression in RAW 264.7 cells; experiment: qRT-PCR of ARG1 mRNA in IL-4/IL-13-stimulated RAW 264.7 cells; details: 12 h, mean ± SD; for mrna remaining at 10 µM: RAW264.7, IL-4/IL-13 (20 ng/mL) plus compound 10 μM; for mrna remaining at 10 µM / ARG1 mRNA Relative Expression (%): stimulated control = 100%; for ARG1 mRNA Relative Expression (%): IL-4/IL-13 (20 ng/mL) plus compound 10 μM
Source text: (§1) We first investigated the impacts of a series of commercially available natural pseudolaric acids or their O-pyranosides (Figure 1) on the pro-tumoral phenotype of TAMs, which play a critical role in anti-tumor immune response modulation. […] In contrast, M1-biased macrophages combat tumor growth and bacterial infections by expressing inducible nitric oxide synthase 2 (NOS2), which catalyzes the production of nitric oxide (NO). Recognizing the pivotal roles of ARG1 and NOS2, we utilized these molecules as key biomarkers and effectors for assessing macrophage immune function. In our experiments, the mouse monocyte–macrophage leukemia cell line RAW 264.7 was induced with IL-4/IL-13 to acquire an M2-like pro-tumoral phenotype. Concurrently, the cells were treated with the pseudolaric acid-related natural products 1–7 at a concentration of 10 μM for 12 h. Additionally, PLX3397 was used as a positive control at a concentration of 0.5 μM. […] As shown in Table 1 and Figure S1A, pseudolaric acid B (1), its deacetoxyl analogue 2 (pseudolaric acid C), and β-D-glucoside 7 substantially attenuated the upregulation of ARG1 mRNA expression induced by IL-4/IL-13, with statistically significant effects. In contrast, bis-carboxylic acids analogs 4 (pseudolaric acid C2) and 6 (demethoxydeacetoxypseudolaric acid B) have no significant impact on ARG1 mRNA expression.
(§2) With these carboxylic acid-modified derivatives in hand, we investigated their impact at 10 μM on ARG1 and NOS2 mRNA expression in RAW 264.7 cells pre-stimulated with IL-4/IL-13 to evaluate the effects on the pro-tumor phenotype of macrophages. […] Further removal of one hydroxyl from the glycerol moiety 15 further enhanced the inhibitory effect on ARG1 expression but had no significant impact on NOS2 expression.
(§3) Total RNA was isolated from cells using the EZ-press RNA Purification Kit (EZBioscience, Suzhou, China) and subjected to reverse transcription with the 5×HiScript II qRT SuperMix II (Vazyme, Nanjing, China). PCR was performed with the 2×ChamQ Universal SYBR qPCR Master Mix (Vazyme, Nanjing, China). All primers for qRT-PCR are described in Table S1. The 2^−∆∆Ct method was utilized to calculate the fold change in gene expression, with the expression levels in the stimulated group set as the baseline for normalization.

[2] = system: NOS2 mRNA expression in RAW 264.7 cells; experiment: qRT-PCR of NOS2 mRNA in IL-4/IL-13-stimulated RAW 264.7 cells; details: 12 h, mean ± SD; for activity at 10 µM: RAW264.7, IL-4/IL-13 (20 ng/mL) plus compound 10 μM; for activity at 10 µM / NOS2 mRNA Relative Expression (%): stimulated control = 100%; for NOS2 mRNA Relative Expression (%): IL-4/IL-13 (20 ng/mL) plus compound 10 μM
Source text: as §1, §2, §3

Raw264.7 cells = experiment: Cell viability (CCK-8) of RAW264.7 cells; details: IL-4/IL-13 plus compound 10 μM, 12 h
Description: Cells were seeded in 96-well tissue culture plates. On the next day, cells were exposed to various concentrations of compounds and further cultured for the indicated period. Finally, cell proliferation was determined by using the Cell Counting Kit (CCK-8) (Dojindo, Kumamoto, Japan) assay.
Figure S2. Effects of natural pseudolaric acids 1-4, 6 and their O-pyranosides 5, 7 as well as the derivatives 8-18 o f 1 on Raw264.7 cell viability. Raw264.7 cells were treated with IL-4/IL-13 alone or combined with indicated compounds (10 μM) for 12 h. After incubation, the cell viability was determined using a cell counting kit (CCK-8, Dojindo, Japan) assay.
(1 picture or pasted object on this page, not shown here)

[3] = Mus musculus, read-out: ARG1 mRNA Relative Expression (%)
[4] = Mus musculus, read-out: NOS2 mRNA Relative Expression (%)

Compound	mrna remaining at 10 µM [1, 3]	activity at 10 µM [2, 4]	further results
FC(F)(F)c1ccc(CNc2ccc(Cc3c[nH]c4ncc(Cl)cc34)cn2)cn1 [PLX3397, reference compound]	–	–	mrna remaining at 0.5 µM ([1]; Mus musculus, RAW264.7, IL-4/IL-13 (20 ng/mL) plus positive control 0.5 μM, read-out: ARG1 mRNA Relative Expression (%)): 3.2 ± 2.4%; activity at 0.5 µM ([2]; Mus musculus, RAW264.7, IL-4/IL-13 (20 ng/mL) plus positive control 0.5 μM, read-out: NOS2 mRNA Relative Expression (%)): 193 ± 10.2%
CC(=O)O[C@]12CCC(C(=O)O)=CC[C@]13CC[C@H]2[C@@](C)(/C=C/C=C(\C)C(=O)O)OC3=O [compound 4, pseudolaric acid C2, reference compound]	87.4 ± 25.4%	131 ± 14.5%	–
COC(=O)C1=CC[C@@]23CC[C@@H]([C@@](C)(/C=C/C=C(\C)C(=O)NCCN(CCO)CCO)OC2=O)[C@@]3(OC(C)=O)CC1 [compound 13, Methyl(3R,4S,4aS,9aR)-4a-acetoxy-3-((1E,3E)-5-((2-(bis(2-hydroxyethyl)amino)ethyl)amino)-4-methyl-5-oxopenta-1,3-dien-1-yl)-3-methyl-1-oxo-3,4,4a,5,6,9-hexahydro-1H-4,9a-ethanocyclohepta[c]pyran-7-carboxylate]	72.2 ± 10.2%	134 ± 5%	–
COC(=O)C1=CC[C@@]23CC[C@@H]([C@@](C)(/C=C/C=C(\C)C(=O)O[C@H]4OC[C@@H](OC(C)=O)[C@H](OC(C)=O)[C@H]4OC(C)=O)OC2=O)[C@@]3(OC(C)=O)CC1 [compound 17, (2R,3R,4S,5R)-2-(((2E,4E)-5-((3R,4S,4aS,9aR)-4a-Acetoxy-7-(methoxycarbonyl)-3-methyl-1-oxo-3,4,4a,5,6,9-hexahydro-1H-4,9a-ethanocyclohepta[c]pyran-3-yl)-2-methylpenta-2,4-dienoyl)oxy)tetrahydro-2H-pyran-3,4,5-triyl triacetate]	32.3 ± 19.2%	91.3 ± 6.9%	–
CC(=O)O[C@]12CCC(C)=CC[C@]13CC[C@H]2[C@@](C)(/C=C/C=C(\C)C(=O)O)OC3=O [compound 3, pseudolaric acid A, reference compound]	343 ± 27.9%	297 ± 6.8%	–
COC(=O)C1=CC[C@@]23CC[C@@H]([C@@](C)(/C=C/C=C(\C)C(=O)O)OC2=O)[C@@]3(O)CC1 [compound 2, pseudolaric acid C, reference compound]	17.3 ± 9.1%	80.1 ± 15.6%	–
COC(=O)C1=CC[C@@]23CC[C@@H]([C@@](C)(/C=C/C=C(\C)C(=O)NCC(C)O)OC2=O)[C@@]3(OC(C)=O)CC1 (stereo partly drawn) [compound 10, Methyl(3R,4S,4aS,9aR)-4a-acetoxy-3-((1E,3E)-5-((2-hydroxypropyl)amino)-4-methyl-5-oxopenta-1,3-dien-1-yl)-3-methyl-1-oxo-3,4,4a,5,6,9-hexahydro-1H-4,9a-ethanocyclohepta[c]pyran-7-carboxylate]	7.5%	103 ± 7.2%	–
CC(=O)O[C@]12CCC(C)=CC[C@]13CC[C@H]2[C@@](C)(/C=C/C=C(\C)C(=O)O[C@@H]1O[C@H](CO)[C@@H](O)[C@H](O)[C@H]1O)OC3=O [compound 5, reference compound]	16.2 ± 9.2%	158 ± 17.2%	–
COC(=O)C1=CC[C@@]23CC[C@@H]([C@@](C)(/C=C/C=C(\C)C(=O)NC(CO)(CO)CO)OC2=O)[C@@]3(OC(C)=O)CC1 [compound 14, Methyl(3R,4S,4aS,9aR)-4a-acetoxy-3-((1E,3E)-5-((1,3-dihydroxy-2-(hydroxymethyl)propan-2-yl)amino)-4-methyl-5-oxopenta-1,3-dien-1-yl)-3-methyl-1-oxo-3,4,4a,5,6,9-hexahydro-1H-4,9a-ethanocyclohepta[c]pyran-7-carboxylate]	42.2 ± 9.5%	136 ± 8%	–
COC(=O)C1=CC[C@@]23CC[C@@H]([C@@](C)(/C=C/C=C(\C)C(=O)NCC(F)(F)F)OC2=O)[C@@]3(OC(C)=O)CC1 [compound 9, Methyl (3R,4S,4aS,9aR)-4a-acetoxy-3-methyl-3-((1E,3E)-4-methyl-5-oxo-5-((2,2,2-trifluoroethyl)amino)penta-1,3-dien-1-yl)-1-oxo-3,4,4a,5,6,9-hexahydro-1H-4,9a-ethanocyclohepta[c]pyran-7-carboxylate]	7.4%	149%	NOS2 mRNA Relative Expression (%) [2]: 148.7 ± 14.1%
(2R,3S,4S,5R,6R)-6-(((2E,4E)-5-((3R,4S,4aS,9aR)-4a-Acetoxy-7-(methoxycarbonyl)-3-methyl-1-oxo-3,4,4a,5,6,9-hexahydro-1H-4,9a-ethanocyclohepta[c]pyran-3-yl)-2-methylpenta-2,4-dienoyl)oxy)tetrahydro-2H-pyran-2,3,4,5-tetrayl tetraacetate [compound 18]	–	–	ARG1 mRNA Relative Expression (%) [1]: 42.6 ± 30.2%; NOS2 mRNA Relative Expression (%) [2]: 58.7 ± 4.5%
COC(=O)C1=CC[C@@]23CC[C@@H]([C@@](C)(/C=C/C=C(\C)C(=O)O[C@@H]4O[C@H](CO)[C@@H](O)[C@H](O)[C@H]4O)OC2=O)[C@@]3(OC(C)=O)CC1 [compound 7, reference compound]	21.2 ± 13%	307 ± 36.2%	cell viability (Raw264.7 cells): only a minimal reduction in cell viability
(2E,4E)-5-((3R,4S,4aS,9aR)-4a-acetoxy-7-(methoxycarbonyl)-3-methyl-1-oxo-3,4,4a,5,6,9-hexahydro-1H-4,9a-ethanocyclohepta[c]pyran-3-yl)-2-methylpenta-2,4-dienoic acid [compound 15]	–	–	ARG1 mRNA Relative Expression (%) [1]: 18.7 ± 18.0%; NOS2 mRNA Relative Expression (%) [2]: 130.3 ± 5.8%
COC(=O)C1=CC[C@@]23CC[C@@H]([C@@](C)(/C=C/C=C(\C)C(=O)OC4O[C@H](COC(C)=O)[C@@H](OC(C)=O)C(OC(C)=O)[C@H]4OC(C)=O)OC2=O)[C@@]3(OC(C)=O)CC1 (stereo partly drawn) [compound 16, (3R,5R,6R)-2-(((2E,4E)-5-((3R,4S,4aS,9aR)-4a-Acetoxy-7-(methoxycarbonyl)-3-methyl-1-oxo-3,4,4a,5,6,9-hexahydro-1H-4,9a-ethanocyclohepta[c]pyran-3-yl)-2-methylpenta-2,4-dienoyl)oxy)-6-(acetoxymethyl)tetrahydro-2H-pyran-3,4,5-triyl triacetate]	80 ± 27.5%	95.2 ± 23%	–
